Test results taken from ChEMBL document CHEMBL3885861, “Open TG-GATES”.

Organism: Rattus norvegicus
Test: Open TG-GATES - Regimen: Single
Format: toxicity, organism-based, Sprague-Dawley
Design: regimen Single, gender Male, age 6 weeks
Settings: in vivo, po, 30 mg/kg, route gavage, dose level Middle; for APTT / Bas / Eos / Fbg / Hb / Ht / Lym / MCH / MCHC / MCV / Mono / Neu / PT / Plat / RBC / Ret / WBC: tissue Blood; for KIDNEY_L / KIDNEY_R / KIDNEY_TOTAL: tissue Kidney; for LIVER: tissue Liver; for A/G / ALP / ALT / AST / BUN / CRE / Ca / Cl / DBIL / GLC / IP / K / LDH / Na / PL / RALB / TBIL / TC / TG / TP / gamma-GTP: tissue Plasma

## CCN(CC)N=O [N-NITROSODIETHYLAMINE]
3 h
  TERMINAL_BW: 220.7 g
  APTT: 19.6 s
  Bas: 0%
  Eos: 1%
  Fbg: 200.2 mg/dL
  Hb: 13.1 g/dL
  Ht: 37.7%
  Lym: 80.2%
  MCH: 21.4 pg
  MCHC: 34.6%
  MCV: 61.8 fL
  Mono: 1.6%
  Neu: 16.6%
  PT: 12 s
  Plat: 118.4 x10_4/uL
  RBC: 610.2 x10_4/ul
  Ret: 7.2%
  WBC: 67.1 x10_2/uL
  KIDNEY_L: 1 g
  KIDNEY_R: 1 g
  KIDNEY_TOTAL: 2 g
  LIVER: 9.5 g
  A/G: 1.6
  ALP: 868.6 IU/L
  ALT: 37.8 IU/L
  AST: 72 IU/L
  BUN: 11 mg/dL
  CRE: 0.4 mg/dL
  Ca: 10.1 mg/dL
  Cl: 102.4 meq/L
  DBIL: 0.06 mg/dL
  GLC: 195.6 mg/dL
  IP: 8.6 mg/dL
  K: 3.6 meq/L
  LDH: 179.2 IU/L
  Na: 140.6 meq/L
  PL: 130.2 mg/dL
  RALB: 3.3 g/dL
  TBIL: 0.1 mg/dL
  TC: 82.6 mg/dL
  TG: 38.6 mg/dL
  TP: 5.4 g/dL
  gamma-GTP: 0.8 IU/L
6 h
  TERMINAL_BW: 224.6 g
  APTT: 18.5 s
  Bas: 0.6%
  Eos: 1%
  Fbg: 234.2 mg/dL
  Hb: 13.4 g/dL
  Ht: 38.8%
  Lym: 78.8%
  MCH: 21.8 pg
  MCHC: 34.5%
  MCV: 63.1 fL
  Mono: 2.8%
  Neu: 16.2%
  PT: 12.4 s
  Plat: 135.1 x10_4/uL
  RBC: 615.6 x10_4/ul
  Ret: 7.7%
  WBC: 111.7 x10_2/uL
  KIDNEY_L: 1 g
  KIDNEY_R: 1 g
  KIDNEY_TOTAL: 1.9 g
  LIVER: 9.9 g
  A/G: 1.6
  ALP: 932.2 IU/L
  ALT: 40.6 IU/L
  AST: 78 IU/L
  BUN: 14.2 mg/dL
  CRE: 0.4 mg/dL
  Ca: 10.3 mg/dL
  Cl: 104.2 meq/L
  DBIL: 0.072 mg/dL
  GLC: 186.4 mg/dL
  IP: 8.3 mg/dL
  K: 3.9 meq/L
  LDH: 224 IU/L
  Na: 141 meq/L
  PL: 130.8 mg/dL
  RALB: 3.3 g/dL
  TBIL: 0.1 mg/dL
  TC: 81.4 mg/dL
  TG: 37.8 mg/dL
  TP: 5.4 g/dL
  gamma-GTP: 1.6 IU/L
9 h
  TERMINAL_BW: 224.1 g
  APTT: 18.7 s
  Bas: 0.4%
  Eos: 1%
  Fbg: 229 mg/dL
  Hb: 13.7 g/dL
  Ht: 39.6%
  Lym: 79.6%
  MCH: 21.5 pg
  MCHC: 34.4%
  MCV: 62.4 fL
  Mono: 3%
  Neu: 15%
  PT: 12.4 s
  Plat: 126.6 x10_4/uL
  RBC: 635.4 x10_4/ul
  Ret: 7.1%
  WBC: 94.4 x10_2/uL
  KIDNEY_L: 1 g
  KIDNEY_R: 1 g
  KIDNEY_TOTAL: 1.9 g
  LIVER: 10 g
  A/G: 1.7
  ALP: 978.4 IU/L
  ALT: 45.6 IU/L
  AST: 80.4 IU/L
  BUN: 15.4 mg/dL
  CRE: 0.4 mg/dL
  Ca: 10.4 mg/dL
  Cl: 103.4 meq/L
  DBIL: 0.088 mg/dL
  GLC: 186 mg/dL
  IP: 8.6 mg/dL
  K: 3.8 meq/L
  LDH: 191.6 IU/L
  Na: 141.2 meq/L
  PL: 130.4 mg/dL
  RALB: 3.5 g/dL
  TBIL: 0.1 mg/dL
  TC: 76.8 mg/dL
  TG: 44.8 mg/dL
  TP: 5.5 g/dL
  gamma-GTP: 1.4 IU/L
24 h
  TERMINAL_BW: 225 g
  APTT: 17.9 s
  Bas: 1%
  Eos: 1%
  Fbg: 217.4 mg/dL
  Hb: 14 g/dL
  Ht: 41.2%
  Lym: 81%
  MCH: 21.6 pg
  MCHC: 33.9%
  MCV: 63.8 fL
  Mono: 3%
  Neu: 13.6%
  PT: 12.7 s
  Plat: 125.9 x10_4/uL
  RBC: 645.6 x10_4/ul
  Ret: 6.7%
  WBC: 95.1 x10_2/uL
  KIDNEY_L: 1 g
  KIDNEY_R: 1 g
  KIDNEY_TOTAL: 2 g
  LIVER: 9.5 g
  A/G: 1.6
  ALP: 918.6 IU/L
  ALT: 37.8 IU/L
  AST: 71 IU/L
  BUN: 12.8 mg/dL
  CRE: 0.4 mg/dL
  Ca: 10.7 mg/dL
  Cl: 103.4 meq/L
  DBIL: 0.084 mg/dL
  GLC: 193 mg/dL
  IP: 9 mg/dL
  K: 3.9 meq/L
  LDH: 212.4 IU/L
  Na: 140.6 meq/L
  PL: 135.8 mg/dL
  RALB: 3.3 g/dL
  TBIL: 0.1 mg/dL
  TC: 78.4 mg/dL
  TG: 47.2 mg/dL
  TP: 5.3 g/dL
  gamma-GTP: 1.4 IU/L
